Reference: patent publication US9221838B2, “Inhibitors of AKT activity” (ALMAC DISCOVERY LIMITED, priority 2009, dated 2015)

Assays:
AKT1 = target: T1, AKT1 (Homo sapiens, UniProt P31749); assay: AKT Kinase Assay (IMAP fluorescent polarisation) vs AKT1; assay type: biochemical
T1 construct: purchased SignalChem
In short: (§1)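 Phosphorylation of FAM-Crosstide detected by IMAP binding and fluorescence polarisation (485/528 nm), with IC50 fitted from % inhibition versus vehicle. Compound was incubated 45 min with enzyme, then reacted 1 h at room temperature with ATP and peptide in Tris/MgCl2/DTT buffer. Dose response had fourteen half-log points.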

[1] = system: PC3 and/or LnCaP cell lines; assay: in vitro cell proliferation assay (Cell Titre Glo); assay type: cell-based; conditions: Homo sapiens, read-out: inhibition of proliferation, IC50
Description: Testing of the compounds was also performed using in vitro cell proliferation assays:
Cell Titre Glo (Promega) is a highly sensitive homogeneous reagent used to determine the viability of cells. The reagent uses a stable form of luciferase to measure ATP as an output of viability. The luminescent values generated in the assay are directly proportional to the number of viable cells in your assay.
The following materials were used: White, clear bottomed 96 well assay plates (Costar); Cell titre Glo reagents; LnCaP (ECACC) cells grown in RPMI medium (Invitrogen) supplemented with 10 mM HEPES (Invitrogen), 1 mM Sodium pyruvate (Invitrogen), 2 mM L-Glutamine (Invitrogen) and 10% Foetal calf serum (Invitrogen); PC3 (ECACC) cells grown in RPMI medium supplemented with 10% Foetal calf serum (Invitrogen); Trypsin (Invitrogen); PBS (Invitrogen); Biotek Synergy 4 Hybrid Plate reader; 96 well plate shaker (Stuart SSL5); Eppendorf 5414 desk-top centrifuge; Beckman Coulter cell counter Z1 single threshold system.
Prostate cell lines, PC3 and LnCaP, were washed, detached and re-suspended in their respective fresh media. The cells were pelleted by centrifugation (Eppendorf 5414) and spent supernatant discarded. The cells were re-suspended by vortex mixing, counted and seeded into clear bottom white 96 well plates at a density of 5000 cells per well. The cells were incubated (Sanyo) overnight at 37° C. ([…]), and next day treated with increasing concentrations of test compound formulated in fresh medium. The plates were returned to the incubator for 72 hours. […]
The cell viability post compound treatment was determined by the luminescent intensity emitted from the drug treated wells in the plate. In brief, the assay plate was placed in the Biotex Synergy 4 Hybrid plate reader and the luminescence read in each well. The compound treated wells were compared to vehicle treated wells and the % inhibition of cell viability calculated.
The data was analysed using GraphPad Prism, with IC50 values generated using non-linear regression of the data set.

GSK3β phosphorylation = assay: phosphorylation status of members of the AKT/PI3K pathway via ELISA; assay type: cell-based; conditions: measured at 48 h, read-out: inhibition of GSK3β phosphorylation, IC50
AKT2 = target: T2, AKT2 (Homo sapiens, UniProt P31751); assay: AKT Kinase Assay (IMAP fluorescent polarisation) vs AKT2; assay type: biochemical
T2 construct: purchased SignalChem
In short: as §1

AKT3 = target: T3, AKT3 (Homo sapiens, UniProt Q9Y243); assay: AKT Kinase Assay (IMAP fluorescent polarisation) vs AKT3; assay type: biochemical
T3 construct: purchased SignalChem
In short: as §1

T1 sequence (P31749 whole entry): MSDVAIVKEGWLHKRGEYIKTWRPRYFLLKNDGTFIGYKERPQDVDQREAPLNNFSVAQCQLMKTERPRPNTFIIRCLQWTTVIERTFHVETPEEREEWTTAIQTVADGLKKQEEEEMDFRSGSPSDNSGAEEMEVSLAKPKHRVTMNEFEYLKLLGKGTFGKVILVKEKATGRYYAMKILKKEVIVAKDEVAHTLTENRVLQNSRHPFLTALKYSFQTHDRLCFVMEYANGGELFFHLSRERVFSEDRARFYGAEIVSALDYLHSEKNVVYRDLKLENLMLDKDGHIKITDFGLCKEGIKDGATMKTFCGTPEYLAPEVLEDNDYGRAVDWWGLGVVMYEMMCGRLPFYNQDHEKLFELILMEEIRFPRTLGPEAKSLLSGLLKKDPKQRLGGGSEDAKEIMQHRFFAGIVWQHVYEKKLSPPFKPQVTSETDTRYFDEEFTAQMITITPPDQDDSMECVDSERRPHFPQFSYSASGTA
T3 sequence (Q9Y243 whole entry): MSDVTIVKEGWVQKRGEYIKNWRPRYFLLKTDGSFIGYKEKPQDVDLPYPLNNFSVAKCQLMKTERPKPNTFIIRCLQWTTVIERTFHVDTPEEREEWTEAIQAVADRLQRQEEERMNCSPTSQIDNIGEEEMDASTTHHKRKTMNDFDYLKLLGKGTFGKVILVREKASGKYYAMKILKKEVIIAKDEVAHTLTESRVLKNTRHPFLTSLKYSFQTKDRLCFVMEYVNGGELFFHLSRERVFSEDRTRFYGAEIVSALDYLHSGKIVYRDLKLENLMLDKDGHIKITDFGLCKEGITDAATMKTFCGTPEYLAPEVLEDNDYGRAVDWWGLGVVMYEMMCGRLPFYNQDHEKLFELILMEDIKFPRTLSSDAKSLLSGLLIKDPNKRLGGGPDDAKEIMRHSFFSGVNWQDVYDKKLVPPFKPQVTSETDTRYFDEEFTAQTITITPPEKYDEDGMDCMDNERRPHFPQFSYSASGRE
T2 sequence (P31751 whole entry): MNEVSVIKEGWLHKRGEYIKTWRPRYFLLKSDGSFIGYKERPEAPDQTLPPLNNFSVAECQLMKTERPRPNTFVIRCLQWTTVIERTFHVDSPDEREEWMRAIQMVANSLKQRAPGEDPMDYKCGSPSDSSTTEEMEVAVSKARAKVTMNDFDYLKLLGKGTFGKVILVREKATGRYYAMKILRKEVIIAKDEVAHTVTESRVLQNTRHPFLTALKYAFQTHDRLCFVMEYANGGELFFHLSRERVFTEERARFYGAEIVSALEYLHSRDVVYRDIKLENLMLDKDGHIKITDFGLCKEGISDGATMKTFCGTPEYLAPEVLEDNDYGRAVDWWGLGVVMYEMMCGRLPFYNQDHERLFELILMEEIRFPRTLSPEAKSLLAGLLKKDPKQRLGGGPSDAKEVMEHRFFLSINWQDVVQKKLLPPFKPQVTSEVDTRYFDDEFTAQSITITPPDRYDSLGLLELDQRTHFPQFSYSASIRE

| IC50 (AKT1) [µM] | IC50 [1] [µM] | IC50 (GSK3β phosphorylation) [µM] | IC50 (AKT2) [µM] | IC50 (AKT3) [µM] | Compound |
| --- | --- | --- | --- | --- | --- |
| 0.1 to 1 | – | – | 0.1 to 1 | 1 to 10 | NC1(c2ccc(-c3nc4c(cc3-c3ccccc3)-n3c(n[nH]c3=O)CO4)cc2)CCC1 [Example 38, 7-(4-(1-aminocyclobutyl)phenyl)-8-phenyl-2,4-dihydro-1H-pyrido[2,3-b][1,2,4]triazolo[4,3-d][1,4]oxazin-1-one] |
| 0.1 to 1 | – | – | 1 to 10 | 1 to 10 | Nc1ncc2c(n1)-c1cc(-c3ccccc3)c(-c3ccc(C4(N)CCC4)cc3)nc1CC2 [Example 17] |
| ≤ 0.1 | – | – | 1 to 10 | > 10 | NC1(c2ccc(-c3nc4c(cc3-c3ccccc3)-c3n[nH]c(O)c3CC4)cc2)CCC1 [Example 7, 7-(4-(1-aminocyclobutyl)phenyl)-8-phenyl-4,5-dihydro-2H-pyrazolo[3,4f]quinolin-3-ol] |
| 1 to 10 | – | – | > 10 | > 10 | CCN1CCc2nc(-c3ccc(C4(N)CCC4)cc3)c(-c3ccccc3)cc2C1 [Example 27, 1-(4-(6-ethyl-3-phenyl-5,6,7,8-tetrahydro-1,6-naphthyridin-2-yl)phenyl)cyclobutanamine] |
| ≤ 0.1 | – | – | 0.1 to 1 | 0.1 to 1 | NC1(c2ccc(-c3nc4c(cc3-c3ccccc3)-n3c(CF)nnc3CO4)cc2)CCC1 [Example 120, 1-(4-(1-(fluoromethyl)-8-phenyl-4H-pyrido[2,3-b][1,2,4]triazolo[4,3-d][1,4]oxazin-7-yl)phenyl)cyclobutanamine] |
| ≤ 0.1 | < 10 | – | 0.1 to 1 | 1 to 10 | CN1C(=O)COc2nc(-c3ccc(C4(N)CCC4)cc3)c(-c3ccccc3)cc21 [Example 31, 6-(4-(1-aminocyclobutyl)phenyl)-1-methyl-7-phenyl-1H-pyrido[2,3-b][1,4]oxazin-2(3H)-one] |
| 0.1 to 1 | – | – | 1 to 10 | > 10 | Cn1cc2c(n1)-c1cc(-c3ccccc3)c(-c3ccc(C4(N)CCC4)cc3)nc1CC2 [Example 5, 1-(4-(2-methyl-8-phenyl-4,5-dihydro-2H-pyrazolo[3,4-f]quinolin-7-yl)phenyl)cyclobutanamine] |
| 0.1 to 1 | – | – | ≤ 0.1 | 1 to 10 | C[C@]1(O)C[C@@](N)(c2ccc(-c3nc4c(cc3-c3ccccc3)N(CC(F)(F)F)C(=O)CO4)cc2)C1 [Example 152, 6-(4-((1r,3r)-1-amino-3-hydroxy-3-methylcyclobutyl)phenyl)-7-phenyl-1-(2,2,2-trifluoroethyl)-1H-pyrido[2,3-b][1,4]oxazin-2(3H)-one] |
| 0.1 to 1 | – | – | ≤ 0.1 | > 10 | N#CCN1CCOc2nc(-c3ccc(C4(N)CCC4)cc3)c(-c3ccccc3)cc21 [Example 43, 2-(6-(4-(1-aminocyclobutyl)phenyl)-7-phenyl-2,3-dihydro-1H-pyrido[2,3-b][1,4]oxazin-1-yl)acetonitrile] |
| 1 to 10 | – | – | 0.1 to 1 | 1 to 10 | CC(C)N1C(=O)COc2nc(-c3ccc(C4(N)CCC4)cc3)c(-c3ccccc3)cc21 [Example 57, 6-(4-(1-aminocyclobutyl)phenyl)-1-isopropyl-7-phenyl-1H-pyrido[2,3-b][1,4]oxazin-2(3H)-one] |
| 0.1 to 1 | – | – | 1 to 10 | > 10 | CN1CCc2nc(-c3ccc(C4(N)CCC4)cc3)c(-c3ccccc3)cc2C1=O [Example 23, 2-(4-(1-aminocyclobutyl)phenyl)-6-methyl-3-phenyl-7,8-dihydro-1,6-naphthyridin-5(6H)-one] |
| 0.1 to 1 | – | – | 0.1 to 1 | 1 to 10 | N[C@]1(c2ccc(-c3nc4c(cc3-c3ccccc3)N(CC3CC3)C(=O)CO4)cc2)C[C@H](O)C1 [Example 140, 6-(4-((1s,3s)-1-amino-3-hydroxycyclobutyl)phenyl)-1-(cyclopropylmethyl)-7-phenyl-1H-pyrido[2,3-b][1,4]oxazin-2(3H)-one] |

Continued, compound first:

| Compound | IC50 (AKT1) [µM] | IC50 [1] [µM] | IC50 (GSK3β phosphorylation) [µM] | IC50 (AKT2) [µM] | IC50 (AKT3) [µM] |
| --- | --- | --- | --- | --- | --- |
| NC1(c2ccc(-c3nc4c(cc3-c3ccccc3)-c3n[nH]cc3CC4)cc2)CCC1 [Example 4, 1-(4-(8-phenyl-4,5-dihydro-2H-pyrazolo[3,4-f]quinolin-7-yl)phenyl)cyclobutanamine] | ≤ 0.1 | < 10 | < 0.1 | 0.1 to 1 | > 10 |
| NC1(c2ccc(-c3nc4c(cc3-c3ccccc3)-c3nncn3CC4)cc2)CCC1 [Example 28, 1-(4-(9-phenyl-5,6-dihydro-[1,2,4]triazolo[3,4-f][1,6]naphthyridin-8-yl)phenyl)cyclobutanamine] | 1 to 10 | < 10 | – | 0.1 to 1 | > 10 |
| CN1C(=O)COc2nc(-c3ccc([C@]4(N)C[C@@H](O)C4)cc3)c(-c3ccccc3)cc21 [Example 97, 6-(4-((1s,3s)-1-amino-3-hydroxycyclobutyl)phenyl)-1-methyl-7-phenyl-1H-pyrido[2,3-b][1,4]oxazin-2(3H)-one] | 0.1 to 1 | – | – | 1 to 10 | 1 to 10 |
| C[C@]1(O)C[C@@](N)(c2ccc(-c3nc4c(cc3-c3ccccc3)N(CCF)C(=O)CO4)cc2)C1 [Example 145, 6-(4-((1r,3r)-1-amino-3-hydroxy-3-methylcyclobutyl)phenyl)-1-(2-fluoroethyl)-7-phenyl-1H-pyrido[2,3-b][1,4]oxazin-2(3H)-one] | ≤ 0.1 | – | – | ≤ 0.1 | 0.1 to 1 |
| NCc1ccc(-c2nc3c(cc2-c2ccccc2)N(CC2CC2)C(=O)CO3)cc1 [Example 153, 6-(4-(Aminomethyl)phenyl)-1-(cyclopropylmethyl)-7-phenyl-1H-pyrido[2,3-b][1,4]oxazin-2(3H)-one] | 1 to 10 | – | – | 1 to 10 | > 10 |
| CC12CCc3nc(-c4ccc(C5(N)CCC5)cc4)c(-c4ccccc4)cc3C1=NNC2=O (stereo not shown) [Example 8, 7-(4-(1-aminocyclobutyl)phenyl)-3a-methyl-8-phenyl-4,5-dihydro-2H-pyrazolo[3,4-f]quinolin-3(3aH)-one] | 0.1 to 1 | – | – | 0.1 to 1 | > 10 |
| NC1(c2ccc(-c3nc4c(cc3-c3ccccc3)/C(=N/O)CCC4)cc2)CCC1 [Example 2, 2-(4-(1-aminocyclobutyl)phenyl)-3-phenyl-7,13-dihydroquinolin-5(6H)-one oxime] | 0.1 to 1 | – | – | 1 to 10 | > 10 |
| CN1C(=O)CCNc2nc(-c3ccc(C4(N)CCC4)cc3)c(-c3ccccc3)cc21 [Example 114, 7-(4-(1-aminocyclobutyl)phenyl)-1-methyl-8-phenyl-4,5-dihydro-1H-pyrido[2,3-b][1,4]diazepin-2(3H)-one] | 1 to 10 | – | – | 1 to 10 | > 10 |
| NC1(c2ccc(-c3nc4c(cc3-c3ccccc3)-n3c(nnc3CC(F)(F)F)CO4)cc2)CCC1 [Example 118, 1-(4-(8-phenyl-1-(2,2,2-trifluoroethyl)-4H-pyrido[2,3-b][1,2,4]triazolo[4,3-d][1,4]oxazin-7-yl)phenyl)cyclobutanamine] | 0.1 to 1 | – | – | 1 to 10 | 1 to 10 |
| Nc1nnc2n1-c1cc(-c3ccccc3)c(-c3ccc(C4(N)CCC4)cc3)nc1OC2 [Example 50, 7-(4-(1-aminocyclobutyl)phenyl)-8-phenyl-4H-pyrido[2,3-b][1,2,4]triazolo[4,3-d][1,4]oxazin-1-amine] | ≤ 0.1 | – | – | 0.1 to 1 | 1 to 10 |
| NC1(c2ccc(-c3nc4c(cc3-c3ccccc3)N(CCF)C(=O)CO4)cc2)CCC1 [Example 86, 6-(4-(1-aminocyclobutyl)phenyl)-1-(2-fluoroethyl)-7-phenyl-1H-pyrido[2,3-b][1,4]oxazin-2(3H)-one] | 0.1 to 1 | – | – | ≤ 0.1 | 1 to 10 |
| C[C@]1(O)C[C@@](N)(c2ccc(-c3nc4c(cc3-c3ccccc3)N(CC3CC3)C(=O)CO4)cc2)C1 [Example 144, 6-(4-((1r,3r)-1-amino-3-hydroxy-3-methylcyclobutyl)phenyl)-1-(cyclopropylmethyl)-7-phenyl-1H-pyrido[2,3-b][1,4]oxazin-2(3H)-one] | 0.1 to 1 | – | – | ≤ 0.1 | 0.1 to 1 |
